Experimental data from patent publication US20090326008A1, “NF-kappa B Inhibitor” (priority 2006, published 2009).

Tested on: TNFα
Assay: Relative TNFα mRNA expression in IL-1β-stimulated MKN-45 cells (real-time PCR)
Format: cell-based, human
Conditions: IL-1β-stimulated DMSO-treated cells = 100%, ACTB reference
Experimental: RNA was extracted from the cells used in Example 2 according to the manufacturer's protocol for ABI Prism 6100 Nucleic Acid PrepStation (a nucleic acid isolation system, product of Applied Biosystems). More specifically, after removal of the culture supernatant and washing with 1 mL of PBS, 250 μL of Nucleic Acid Purification Lysis Solution (Part No. 4305895, Applied Biosystems) was added, and then agitated using a shaker for 2 to 3 minutes. The Lysis Solution containing the cell lysate was collected, and the total amount was transferred to the wells of RNA Purification Tray (Part No. 4305673, Applied Biosystems), which had been pre-wet with 40 μL of Nucleic Acid Purification Wash Solution I (Part No. 4305891, Applied Biosystems) beforehand. Aspiration (20% pressure) was performed for 2 minutes to adsorb the sample onto the RNA Purification Tray, followed by sequentially adding and aspirating (20% pressure, 2 min.) 500 μL of Wash Solution I, Nucleic Acid Purification (Part No. 4305891, Applied Biosystems), 400 μL of Wash Solution II, Nucleic Acid Purification (Part No. 4305890, product of Applied Biosystems), 400 μL of the Wash Solution II, and 300 μL of the Wash Solution II in that order. Aspiration (90% pressure) was performed for 5 minutes to remove the water content from the RNA Purification Trays. After addition of 150 μL of Elution Solution, Nucleic Acid Purification (Part No. 4305893, product of Applied Biosystems), aspiration (20% pressure) was performed for 2 minutes, while collecting the outflow. This was used as collected RNA solution.
Absorbance of the collected RNA solution at 260 nm was measured using a microplate spectrophotometer (“SpectraMax Plus”, product of Molecular Devices) with an analysis software (“SOFTmaxPRO ver.3.1.2”, product of Molecular Devices), and the RNA concentration was determined from the absorbance. Likewise, absorbance at 280 nm was measured and the purity of the RNA was determined using the analysis software.
cDNA was synthesized according to the manufacturer's protocol for TaqMan® Reverse Transcription Reagents (Part No. N808-0234, product of Applied Biosystems). More specifically, about 0.5 μg of RNA, 2.5 μL of 10×RT buffer, 5.5 μL of MgCl2 solution, 5 μL of dNTP mixture, 1.25 μL of random hexamer (primers), 0.5 μL of RNase inhibitor, and 0.63 μL of MultiScribe Reverse Transcriptase (product of Applied Biosystems) were added to each collected RNA sample in a tube, and DEPC-treated water was added to make a total volume of 25 μL and stirred. A reaction consisting of 25° C. for 10 minutes, 48° C. for 30 minutes, and 95° C. for 5 minutes was performed using a PCR thermal cycler (“TaKaRa PCR Thermal Cycler Dice”, product of Takara Bio Inc.) to prepare a cDNA solution.
PCR was performed according to the manufacturer's protocol for TaqMan® Gene Expression Assays (product of Applied Biosystems). More specifically, 5 μL of TaqMan® Fast Universal PCR Master Mix (product of Applied Biosystems), 0.5 μL of TaqMan® Gene Expression Assays for the target gene (gene-specific probe and primer sets, product of Applied Biosystems), and 4.5 μL of the above-obtained cDNA solution were added to each sample and stirred. A PCR reaction consisting of heating at 95° C. for 20 seconds, followed by 40 cycles consisting of heating at 95° C. for 3 seconds and annealing and extension at 60° C. for 30 seconds was performed using a real-time PCR device (“Applied Biosystems 7500 Real-Time PCR System”) with SDS v1.4 Software (product of Applied Biosystems). Threshold cycle (Ct) values were calculated using the software.
The Assay IDs of the TaqMan® Gene Expression Assays for the target genes used are as follows:
The expression level of each gene was determined according to the following formula using the level of ACTB as a reference standard.
(Relative mRNA expression level)=2̂−{(Ct value of the target gene)−(Ct value of ACTB)} […]

COc1ccc(CC2SC(=S)NC2=O)c2c1N(CCC(C)C)C(=O)CC2 (stereo not shown) [Test Compound 965]
TNFa relative mRNA expression level, Mean: 63.0%
